# Experimental data taken from patent US20260199289A1, “USE OF GLYCOGEN METABOLISM INHIBITORS FOR THE TREATMENT OF CANCER” (THE UNIVERSITY OF VERMONT AND STATE AGRICULTURAL COLLEGE, priority 2022, published 2026).
# Entries after “also recorded” stand apart in the source; their conditions may differ. Like-named read-outs stand apart in the source and are kept apart here.
# Experiments:
# [1] = mouse, in vivo
# Protocol: Four-week-old athymic female nude mice (outbred homozygous nude Foxn1^nu/Foxn1^nu) were purchased from Jackson Laboratory (Bar Harbor, ME, USA) and were allowed to acclimatize for one week. Mice were given food and water ad libitum. Mice were anesthetized using 3% isoflurane delivered at 1.5 L/min, and tumors were established by subcutaneously injecting 1×10^6 8505C cells with a 26G needle in 100 μL of high concentration Matrigel (Corning Inc.) diluted 1:2 with base RPMI-1640 into each flank of 24 mice. One week later, mice were sorted into four treatment groups to achieve approximately equal body weights between mice. […] Pharmacological agents were dissolved in 100% DMSO and diluted daily in 30% DMSO, 40% PEG300, and 30% PBS and incubated at 55° C. for 10 minutes prior to vortexing to encourage complete solubilization. Tumor dimensions were measured with digital calipers, and the volumes were calculated by the following formula: (Π×a×b^2)/6, where a represents the largest diameter and b is the perpendicular diameter. The body weight of each animal was taken twice a week to measure toxicity. Mice were euthanized with carbon dioxide, and the tumors were harvested, fixed with formalin (Thermo Fisher Scientific), and stored at 4° C. prior to slide sectioning and immunofluorescence analysis.
# Nthy-ori-3-1 cells = experiment: Glycogen content (colorimetric assay, TEM) in normal thyroid cells; assay type: cell-based, human; conditions: Nthy-ori-3-1 normal thyroid cells, CP-91,149 50 μM, 24-hour incubation
# Protocol: Transmission Electron Microscopy of Glycogen Deposits—Cells were seeded in 10 cm dishes and allowed to adhere overnight. […] Cells were then rinsed with PBS and lifted with trypsin for preparation for TEM as described previously. Thwe et al., “Cell-intrinsic Glycogen Metabolism Supports Early Glycolytic Reprogramming Required for Dendritic Cell Immune Responses,” Cell Metabolism 26:558-567.e555 (2017), which is hereby incorporated by reference in its entirety.
# (§1) Quantification of Levels of Glycogen, Glucose-1-Phosphate, Glucose-6-Phosphate, Lactate, ATP, Glucose, NADPH, and Glutathione—Briefly, cells were seeded in 10 cm dishes (for measuring glycogen and NADPH), 6 well plates (GIP, G6P, lactate, glucose, and glutathione), or 96 well plates (ATP) and allowed to adhere overnight. CTM was aspirated and cells were rinsed with PBS before application of compounds dissolved in CTM for 24 hours, at which point cells were ~90% confluent. CTM was then aspirated, cells were rinsed with PBS, and lysed according to the respective manufacturer protocol (see Table 4) for metabolite analysis.
# 8505C thyrospheres = experiment: ATC stem cell thyrosphere growth; assay type: cell-based, human; conditions: 8505C stem cells, day 3 compared to day 1
# Source text: Bolf et al., “Thyroid Hormone Receptor Beta Induces a Tumor Suppressive Program in Anaplastic Thyroid Cancer,” Molecular Cancer Research 18(10):1443-1452 (2020), which is hereby incorporated by reference in its entirety. Thyrospheres per well were counted and imaged using a digital camera (Diagnostics Instruments) connected to a Nikon Eclipse TS100 inverted microscope.
# 8505C cells [2] = experiment: RT-qPCR of glucose transporter expression; assay type: cell-based, human; conditions: 50 μM CP-91,149, 24 hours
# Source text: RNA Extraction and Quantitative Real-Time PCR (qRT-PCR)—Total RNA was extracted using RNeasy Plus Kit (Qiagen) according to manufacturer's protocol. cDNA was synthesized using LunaScript® RT SuperMix Kit (New England Biolabs). Gene expression to validate RNA-seq analysis was quantified by qRT-PCR using Luna® Universal qPCR Master Mix (New England Biolabs) on a QuantStudio 3 real-time PCR system (Thermo Fisher Scientific). Fold change in gene expression compared to endogenous controls was calculated using the ddCT method.
# 8505C cells [3] = experiment: Metabolic flux analysis (Seahorse ECAR and OCR); assay type: cell-based, human; conditions: for extracellular acidification rate (ECAR): 8505C cells; for oxygen consumption rate (OCR): 50 μM CP-91,149, 24 hours
# Protocol: Metabolic Flux Analysis—Thyroid cells (5.0×10^4) were plated in a 96 well Seahorse culture plate with compounds of interest diluted in 200 μl CTM for 24 hours. Cells were washed with PBS and equilibrated for 1 hour at 37° C. in a non-CO2 incubator with compounds of interest diluted in Seahorse RPMI (supplemented with 11.1 mM glucose, 2 mM glutamine, and 5% serum) before analysis of OCR and ECAR in a Metabolic Flux Analyzer (Seahorse Bioscience, North Billerica, MA 96XP).
# 8505C cells [4] = experiment: Quantification of G1P, G6P, lactate, ATP, glucose, NADPH and glutathione; assay type: cell-based, human; conditions: 50 μM CP-91,149, 24 hours
# Protocol: as §1
# 8505C tumors = experiment: 8505C xenograft tumor growth in nude mice; assay type: in vivo, mouse; conditions: intraperitoneal, 50 mg/kg CP-91,149, 10 mg/kg sorafenib, 6-7 days a week
# Protocol: Ethics statement and animal modeling—All animal procedures were approved by Institutional Animal Care and Use Committee (IACUC) at the University of Vermont. All animals were maintained in pathogen-free conditions and cared for in accordance with IACUC policies and certification. All surgeries were performed with isoflurane anesthesia. Temperature-controlled post-surgical monitoring was implemented to minimize suffering. Mice carrying anaplastic thyroid tumors were euthanized at designated time points for tumor collection. Signs of ulceration or a maximum individual tumor size of 2000 mm^3 were used as a protocol-enforced endpoint.
# Mice were given food and water ad libitum. […] These doses were based on previous reports.
# 8505C cells [5] = experiment: Immunoblot of apoptosis markers and Ki-67 in ATC cells; assay type: cell-based, human; conditions: for apoptosis (PARP, caspase 9 and caspase 7 cleavage): six hours
# Protocol: Briefly, proteins were isolated from whole cells in lysis buffer (20 mM Tris-HCl (pH 8), 137 mM NaCl, 10% glycerol, 1% Triton X-100, and 2 mM EDTA), quantified via Pierce™ BCA Protein Assay Kit (Thermo Fisher Scientific), and 25 μg protein/sample were resolved by polyacrylamide gel electrophoresis and immobilized onto nitrocellulose membranes. Membranes were blocked with 5% w/v BSA in TBS and 0.1% v/v Tween20 (Gold Bio, St Louis, MO, USA) for one hour at room temperature and incubated with primary antibodies overnight. Membranes were washed with TBS-0.1% Tween20 and secondary antibodies were applied for 1 hour at room temperature in 5% w/v BSA in TBS and 0.1% v/v Tween20. Immunoreactive proteins were detected by enhanced chemiluminescence (Thermo Scientific) on a ChemiDoc XRS+ (Bio-Rad Laboratories). Densitometry analysis was performed using ImageJ.
smiles,measurement,setting,value
"CN(C)C(=O)[C@H](O)[C@H](Cc1ccccc1)NC(=O)c1cc2cc(Cl)ccc2[nH]1 [CP-91,149, 5-chloro-N-[(2S,3R)-4-(dimethylamino)-3-hydroxy-4-oxo-1-phenylbutan-2-yl]-1H-indole-2-carboxamide]",toxicity (body weight),[1],low toxicity
same,glycogen content,Nthy-ori-3-1 cells,increased glycogen content
same,glycogen content,Nthy-ori-3-1 cells; listed as CP,significantly increased glycogen content
same,thyrosphere growth / stem cell response,8505C thyrospheres,inhibits 8505C thyrosphere growth
same,thyrosphere growth / stem cell response,8505C thyrospheres; listed as CP,concentration-dependent response
same,SLC2A1 (GLUT1) expression,8505C cells [2]; 149,increases the expression
same,SLC2A3 (GLUT3) expression,8505C cells [2]; 149,increases the expression
same,SLC2A4 (GLUT4) expression,8505C cells [2]; 149,increases the expression
same,SLC2A1 (GLUT1) expression,8505C cells [2]; listed as CP,increase
same,SLC2A3 (GLUT3) expression,8505C cells [2]; listed as CP,increase
same,SLC2A4 (GLUT4) expression,8505C cells [2]; listed as CP,did not change
same,extracellular acidification rate (ECAR),8505C cells [3],enhances extracellular acidification rate
same,extracellular acidification rate (ECAR),8505C cells [3]; listed as CP,modestly but significantly enhanced ECAR
same,increase of OCR to compensate for inhibition of glycolysis with 2-DG,"8505C cells [3]; ATC cells, CP-treated versus vehicle-treated",unable to increase their oxidative phosphorylation
same,oxygen consumption rate (OCR),8505C cells [3]; ATC cells,decreases the basal oxygen consumption rate
same,oxygen consumption rate (OCR),"8505C cells [3]; ATC cells, listed as CP",significantly limited the OCR
same,NADPH level,8505C cells [4]; 8505C cells,decreased NADPH levels; also recorded: decreases the available supply of NADPH
same,extracellular glucose / glucose uptake from the cell culture media,8505C cells [4]; 8505C cells,causes an increase in glucose uptake from the cell culture media
same,glucose-1-phosphate (G1P) level,8505C cells [4]; 8505C cells,causes a buildup in glucose-1-phosphate
same,glucose-6-phosphate (G6P) level,8505C cells [4]; 8505C cells,a reduction in glucose-6-phosphate
same,lactate production,8505C cells [4]; 8505C cells,enhances
same,reduced glutathione (GSH),8505C cells [4]; 8505C cells,decreases the relative amount of reduced glutathione (GSH)
same,NADPH level,"8505C cells [4]; 8505C cells, listed as CP",drastic decrease in NADPH
same,extracellular glucose / glucose uptake from the cell culture media,"8505C cells [4]; 8505C cells, listed as CP",significant reduction in extracellular glucose
same,glucose-1-phosphate (G1P) level,"8505C cells [4]; 8505C cells, listed as CP","a buildup of the glycogen monomer, glucose-1-phosphate (G1P)"
same,glucose-6-phosphate (G6P) level,"8505C cells [4]; 8505C cells, listed as CP","a decrease in the glycolytic intermediate, glucose-6-phosphate (G6P)"
same,reduced glutathione (GSH),"8505C cells [4]; 8505C cells, listed as CP",concomitant loss in reduced glutathione (GSH)
same,ATP levels,8505C cells [4]; ATC cells,decreases the levels of ATP
same,tumor growth,8505C tumors,significantly impaired tumor growth in vivo; also recorded: severely blunted ATC tumor growth in vivo; also recorded: restrict ATC tumor growth
same,tumor growth,8505C tumors; listed as CP,notably stunted; also recorded: equally as effective as sorafenib
same,proliferation marker Ki-67 expression,8505C cells [5],inhibits proliferation
same,proliferation marker Ki-67 expression,8505C cells [5]; listed as CP,reduced expression of the proliferation marker Ki-67
same,"apoptosis (PARP, caspase 9 and caspase 7 cleavage)",8505C cells [5],induced apoptosis in ATC cells
same,"apoptosis (PARP, caspase 9 and caspase 7 cleavage)",8505C cells [5]; listed as CP,"significant PARP, caspase 9, and caspase 7 cleavage"
same,"apoptosis (PARP, caspase 9 and caspase 7 cleavage)","8505C cells [5]; listed as CP-911,49",induces apoptosis
